The target of assay [1] is T1, Gag-Pol polyprotein [588-1027] (Human immunodeficiency virus type 1 group M subtype B (isolate HXB2), UniProt P04585).
T1 construct: 588-1027
Nature of the assay: Reverse Transcriptase Assay. The note with it: pH 7.4; 37 °C.

The target in assay [2] is T2, Gag-Pol polyprotein [588-1027,K691N,Y769C]/[588-1147,K691N,Y769C] (Human immunodeficiency virus 1, UniProt P04585, K691N/Y769C).
T2 construct: 588-1027; 588-1147
The experiment in a line: Reverse Transcriptase Assay.

A value given as a limit tells only on which side of the number the result lay.

Consider `CC(C)(C)c1ccc(-c2c[nH]nc2OCC(=O)Nc2ccc(-c3ccc(CC(=O)O)cc3)cc2Cl)c(Cl)c1` [2-{4-[4-(2-{[4-(4-tert-butyl-2-chlorophenyl)-1H-pyrazol-3-yl]oxy}acetamido)-3-chlorophenyl]phenyl}acetic acid], for which, in assay [1], the IC50 is over 3.3 µM.
Take `Cc1ccc(-n2cc(C)nc2SCC(=O)Nc2ccccc2Cl)c(Cl)c1` [2-{[1-(2-chloro-4-methylphenyl)-4-methyl-1H-imidazol-2-yl]sulfanyl}-N-(2-chlorophenyl)acetamide]: the figures for the IC50 in assay [1] and in assay [2] were over 1 µM and over 10 µM, respectively.
For the molecule `Cc1ccc(-n2ncc(C)c2SCC(=O)Nc2ccc(-c3ccc(CC(=O)O)cc3)cc2Cl)c(Cl)c1` [2-{4-[3-chloro-4-(2-{[1-(2-chloro-4-methylphenyl)-4-methyl-1H-pyrazol-5-yl]sulfanyl}acetamido)phenyl]phenyl}acetic acid], the IC50 in assay [1] and in assay [2] was over 10 µM throughout.
`Cc1ccc(-n2nnnc2SCC(=O)Nc2ccc(-c3ccc(CC(=O)O)cc3)cc2Cl)c(Cl)c1` [2-{4-[3-chloro-4-(2-{[1-(2-chloro-4-methylphenyl)-1H-1,2,3,4-tetrazol-5-yl]sulfanyl}acetamido)phenyl]phenyl}acetic acid]: the IC50 in assay [1] came out at 0.0024 µM; in assay [2], 0.048 µM.
`Cc1ccc(-c2c(SCC(=O)Nc3ccc(-c4ccc(OCC(=O)O)cc4)cc3Cl)ccn2C)c(Cl)c1` [2-{4-[3-chloro-4-(2-{[2-(2-chloro-4-methylphenyl)-1-methyl-1H-pyrrol-3-yl]sulfanyl}acetamido)phenyl]phenoxy}acetic acid] returned an IC50 in assay [1] of over 1 µM.
Regarding `Cc1[nH]nc(OCC(=O)Nc2ccc(C#CC(C)(C)CO)cc2Cl)c1-c1ccc(C(C)(C)C)cc1Cl` [2-{[4-(4-tert-butyl-2-chlorophenyl)-5-methyl-1H-pyrazol-3-yl]oxy}-N-[2-chloro-4-(4-hydroxy-3,3-dimethylbut-1-yn-1-yl)phenyl]acetamide], in assay [1], the EC50 was over 5 µM and the IC50 was over 3.3 µM.

The values are drawn from BindingDB's records for doi:10.1016/j.bmcl.2008.12.074 (Boehringer Ingelheim (Canada), 2009).
